Results as given in PubChem BioAssay AID1259407 (Chemical Carcinogenesis Research Information System (CCRIS), 2018).
Active and inactive are the calls of the source. The rule behind the calls is not given here.

System: CCRIS mutagenicity, Ames/micronucleus/aberration tests
Assay: CCRIS mutagenicity studies
[1] = Test System: AMES SALMONELLA TYPHIMURIUM, Strain/Indicator: TA98, Metabolic Activation: NONE, Method: PREINCUBATION
[2] = Test System: AMES SALMONELLA TYPHIMURIUM, Strain/Indicator: TA100, Metabolic Activation: NONE, Method: PREINCUBATION

**Q.** `CC[N+](=O)[O-]` was tested. Which mutagenic call [1] did it give?
**A.** inactive; negative

**Q.** What about the mutagenic call (Test System: AMES SALMONELLA TYPHIMURIUM, Strain/Indicator: TA98, Metabolic Activation: RAT, LIVER, S-9, KANECHLOR 500, Method: PREINCUBATION) of the same molecule?
**A.** inactive; negative

**Q.** What about the mutagenic call [2] of the same molecule?
**A.** inactive; negative

**Q.** And the mutagenic call (Test System: AMES SALMONELLA TYPHIMURIUM, Strain/Indicator: TA100, Metabolic Activation: RAT, LIVER, S-9, KANECHLOR 500, Method: PREINCUBATION)?
**A.** inactive; negative

**Q.** What about the mutagenic call (Test System: AMES SALMONELLA TYPHIMURIUM, Strain/Indicator: TA102, Metabolic Activation: NONE, Method: PREINCUBATION) of the same molecule?
**A.** inactive; negative

**Q.** And the mutagenic call (Test System: E. COLI, Strain/Indicator: WP2 UVRA (PKM101), Metabolic Activation: NONE, Method: PREINCUBATION)?
**A.** inactive; negative

**Q.** What about the mutagenic call (Test System: E. COLI, Strain/Indicator: WP2 UVRA (PKM101), Metabolic Activation: RAT, LIVER, S-9, KANECHLOR 500, Method: PREINCUBATION) of the same molecule?
**A.** inactive; negative

**Q.** With `[N-]=[N+]=NC[C@H](CO)Cc1ccccc1` as the molecule, how does the mutagenic call (Test System: AMES SALMONELLA TYPHIMURIUM, Strain/Indicator: TA100, Metabolic Activation: RAT, LIVER, S-9, PCB, Method: PREINCUBATION) read?
**A.** active; positive

**Q.** How did the mutagenic call (Test System: AMES SALMONELLA TYPHIMURIUM, Strain/Indicator: TA97, Metabolic Activation: NONE, Method: PREINCUBATION) turn out when `O[C@@H]1[C@H]2O[C@H]2c2c(ccc3ccccc23)[C@H]1O` was run?
**A.** active; positive

**Q.** What about the mutagenic call [1] of the same molecule?
**A.** active; positive

**Q.** What about the mutagenic call [2] of the same molecule?
**A.** active; positive

**Q.** What about the mutagenic call (Test System: AMES SALMONELLA TYPHIMURIUM, Strain/Indicator: TA100, Metabolic Activation: NONE, Method: STANDARD PLATE) of the same molecule?
**A.** active; positive

**Q.** And the mutagenic call (Test System: AMES SALMONELLA TYPHIMURIUM, Strain/Indicator: TA104, Metabolic Activation: NONE, Method: PREINCUBATION)?
**A.** active; positive

**Q.** What about the mutagenic call (Test System: CHINESE HAMSTER V-79, Strain/Indicator: V-79/6-THIOGUANINE, Metabolic Activation: NONE) of the same molecule?
**A.** active; positive
